What was measured:
[1] = highly dilute conditions (~5 mM), pH 7.5, in vitro (ref. 19); cited from earlier work
[2] = target: T1, VLA-4 expressing B16-F10 cells (Mus musculus, UniProt P09055+Q00651); test: In vitro saturation binding assay on B16-F10 cells
T1 construct: endogenous in cells; host or cells: B16-F10 murine melanoma cells
Method: Saturation binding assay. In vitro binding saturation assays were performed on B16-F10 cells following published procedures (n=3).(28) Cells were grown to near-confluence on 24 well poly-D-lysine plates. Growth media was removed, and reaction media (RPMI, 1% BSA, 100 U/mL penicillin/streptomycin) was added and allowed to incubate for at least 1 h at 37° C. Increasing concentrations (5 pM to 20 nM) of [^18F]6 were added to the cells and incubated for 1 h at 25° C. with mild agitation. Non-specific binding was determined by repeating the described incubations with [^18F]6 while simultaneously adding 1 (10 μM). After incubation, cells were washed twice with ice-cold PBS, harvested following incubation with trypsin, and measured for radioactivity using a WIZARD 2480 gamma counter (PerkinElmer). Values from the non-specific binding assays were subtracted from the respective values of the specific binding assays. Dissociation constants (Kd'S) were determined using GraphPad PRISM 7 with a one-site specific binding model.

[3] = test system: B16-F10 tumor-bearing mice; set-up: species or system mice (male C57BL/6J); conditions: mouse, in vivo
Method: PET/CT imaging studies were carried out on a microPET/CT scanner (Inveon, Siemens). Briefly, for static PET scans, each tumor bearing mouse was injected with 4-6 MBq of F-18 labeled […]3-DOTA via the caudal lateral tail vein under isoflurane sedation. For blocking study, mice were co-injected with 100 μg of non-radioactive […]3-DOTA. After injection, the mice were allowed to recover and roam freely in their cages. After 50 min, the mice were sedated again and positioned in the scanner. A baseline CT scan was obtained for localization and attenuation correction. This was followed by a 10 min static PET scan. The mice were kept warm by a heating pad during acquisition. The mice were euthanized using CO2 inhalation after static PET imaging followed by biodistribution. The PET images were reconstructed using the ordered subset expectation maximization and maximum a posteriori algorithm (OSEM3D/MAP), using 2 OSEM3D iterations followed by 18 MAP iterations, with a requested resolution of 1.5 mm. […] For static PET scans (recorded for 10 min), mice were first injected with 4-6 MBq of ([^18F]6) via the tail vein while anesthetized with 2% isoflurane and were subjected to baseline CT scans (recorded for 10 min) prior to PET imaging. […] Dynamic PET scans involved the described anesthesia, injection of 4-6 MBq of [^18F]6, baseline CT scans, and PET scans recorded from 5 sec. to 52.5 min p.i. […]

[4] = test system: B16-F10 tumor-bearing mice; assay type: in vivo, mice (male C57BL/6J); set-up: Reduction of accumulation in the spleen by co-injection of 1 / Reduction of accumulation in the intestines by co-injection of 1 / Reduction of accumulation in the lungs by co-injection of 1 / Reduction of accumulation in bone & marrow by co-injection of 1 / Reduction of accumulation in the tumor by co-injection of 1: concentration or dose not given beside the values
Method: All animal experiments were conducted according to the guidelines established by Canadian Council on Animal Care and approved by Animal Ethics Committee of the University of British Columbia. Mice were housed under pathogen-free conditions and kept on twelve-hour light and dark cycles in the Animal Resource Centre of BC Cancer Research Centre, Vancouver, Canada. PET imaging and biodistribution studies were performed using male C57BL/6J mice. For tumor implantation, mice were anesthetized by inhalation with 2% isoflurane in 2.0 L/min of oxygen, and 1×10^6 B16F10 cells were implanted subcutaneously on the right back at the level of the forelimbs. Mice were imaged or used in biodistribution studies once the tumor grew to reach 8-10 mm in diameter in 8-10 days. Mice for biodistribution study only were anesthetized by 2% isoflurane inhalation, and injected with 1-2 MBq of F-18 labeled […]3-DOTA. For blocking studies, 100 μg of non-radioactive […]3-DOTA was co-injected with the radioactive compound. After injection, the mice were allowed to recover and roam freely in their cages, and euthanized by CO2 inhalation 1 h later. Blood was promptly withdrawn, and the organs of interest were harvested, rinsed with 1×PBS (pH 7.4), and blotted dry. Each organ was weighed and the radioactivity of the collected tissue was measured using a WIZARD 2480 (PerkinElmer), normalized to the injected dose using a standard curve and expressed as the percentage of the injected dose per gram of tissue (% ID/g). Biodistribution of DOTA-[^18[…]]6) in B16-F10 tumor-bearing mice. Mice were anesthetized using 2% isoflurane and injected with 2-3 MBq of [^18F]6 via the tail vein. For competitive VLA-4 blocking studies, 200 μg of 1 was co-injected with 2-3 MBq of [^18F]6. At 1 h p.i., mice were euthanized by CO2 (g) inhalation, blood was collected, and the organs were excised. After rinsing and drying the samples, organs were weighed, their radioactivity was recorded using a Wallac WIZARD2 gamma counter (PerkinElmer), and values were expressed as % ID/g for each organ. Two-tailed ANOVA Sidak's multiple comparison tests (GraphPad PRISM) were used to evaluate statistical significance between the biodistribution of [^18F]6 alone compared with competitive blocking of VLA-4 by co-injections of 1.

[5] = test system: mice bearing PSMA-expressing LNCaP prostate cancer xenografts; set-up: species or system mice (NODSCID 1L2RγKO male); conditions: mouse, in vivo
Method: Imaging and biodistribution experiments were performed using NODSCID 1L2RγKO male mice. The mice were maintained and the experiments were conducted in according to the guidelines established by Canadian Council on Animal Care and approved by Animal Ethics Committee of the University of British Columbia. Mice were anesthetized by inhalation with 2% isoflurane in oxygen, and implanted subcutaneously with 1×10^7 LNCaP cells behind left shoulder. Mice were imaged or used in biodistribution studies when the tumor grew up to reach 5-8 mm in diameter during 5-6 weeks. For biodistribution studies, the mice were injected with the radiotracer as described above. For blocking, the mice were co-injected with non-radioactive DCFPyL (0.5 mg). After 1 hour, the mice were anesthetized with 2% isoflurane inhalation, and euthanized by CO2 inhalation. Blood was withdrawn immediately from the heart, and the organs/tissues of interest were collected. The collected organs/tissues were weighed and counted using an automatic gamma counter. The uptake in each organ/tissue was normalized to the injected dose using a standard curve, and expressed as % ID/g.

T1 sequence (Q00651 41-1039): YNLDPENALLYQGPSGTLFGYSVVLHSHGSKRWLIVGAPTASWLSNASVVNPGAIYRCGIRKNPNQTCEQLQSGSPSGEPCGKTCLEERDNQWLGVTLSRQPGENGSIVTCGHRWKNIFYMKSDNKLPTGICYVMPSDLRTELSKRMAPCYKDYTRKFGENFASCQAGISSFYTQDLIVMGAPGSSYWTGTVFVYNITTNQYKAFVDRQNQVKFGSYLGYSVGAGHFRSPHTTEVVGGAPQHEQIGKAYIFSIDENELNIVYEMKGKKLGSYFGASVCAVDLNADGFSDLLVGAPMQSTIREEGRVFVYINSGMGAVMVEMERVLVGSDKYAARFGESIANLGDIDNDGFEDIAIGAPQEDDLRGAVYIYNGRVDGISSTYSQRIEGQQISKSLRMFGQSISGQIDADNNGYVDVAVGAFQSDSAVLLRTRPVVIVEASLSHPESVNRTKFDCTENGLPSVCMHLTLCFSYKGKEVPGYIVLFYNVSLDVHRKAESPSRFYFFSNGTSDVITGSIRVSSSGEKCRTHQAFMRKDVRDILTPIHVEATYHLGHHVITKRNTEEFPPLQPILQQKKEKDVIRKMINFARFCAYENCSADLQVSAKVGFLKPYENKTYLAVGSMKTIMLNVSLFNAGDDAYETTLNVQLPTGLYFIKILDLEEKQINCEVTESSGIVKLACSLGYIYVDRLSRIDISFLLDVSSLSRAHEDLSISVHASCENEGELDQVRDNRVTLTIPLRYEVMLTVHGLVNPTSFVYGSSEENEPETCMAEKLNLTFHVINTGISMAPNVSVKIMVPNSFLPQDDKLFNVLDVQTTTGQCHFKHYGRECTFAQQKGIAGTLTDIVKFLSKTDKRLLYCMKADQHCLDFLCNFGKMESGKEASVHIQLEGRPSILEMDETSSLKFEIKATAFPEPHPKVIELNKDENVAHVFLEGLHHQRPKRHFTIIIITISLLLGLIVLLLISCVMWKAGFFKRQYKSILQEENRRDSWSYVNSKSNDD
T1 sequence (P09055 21-798): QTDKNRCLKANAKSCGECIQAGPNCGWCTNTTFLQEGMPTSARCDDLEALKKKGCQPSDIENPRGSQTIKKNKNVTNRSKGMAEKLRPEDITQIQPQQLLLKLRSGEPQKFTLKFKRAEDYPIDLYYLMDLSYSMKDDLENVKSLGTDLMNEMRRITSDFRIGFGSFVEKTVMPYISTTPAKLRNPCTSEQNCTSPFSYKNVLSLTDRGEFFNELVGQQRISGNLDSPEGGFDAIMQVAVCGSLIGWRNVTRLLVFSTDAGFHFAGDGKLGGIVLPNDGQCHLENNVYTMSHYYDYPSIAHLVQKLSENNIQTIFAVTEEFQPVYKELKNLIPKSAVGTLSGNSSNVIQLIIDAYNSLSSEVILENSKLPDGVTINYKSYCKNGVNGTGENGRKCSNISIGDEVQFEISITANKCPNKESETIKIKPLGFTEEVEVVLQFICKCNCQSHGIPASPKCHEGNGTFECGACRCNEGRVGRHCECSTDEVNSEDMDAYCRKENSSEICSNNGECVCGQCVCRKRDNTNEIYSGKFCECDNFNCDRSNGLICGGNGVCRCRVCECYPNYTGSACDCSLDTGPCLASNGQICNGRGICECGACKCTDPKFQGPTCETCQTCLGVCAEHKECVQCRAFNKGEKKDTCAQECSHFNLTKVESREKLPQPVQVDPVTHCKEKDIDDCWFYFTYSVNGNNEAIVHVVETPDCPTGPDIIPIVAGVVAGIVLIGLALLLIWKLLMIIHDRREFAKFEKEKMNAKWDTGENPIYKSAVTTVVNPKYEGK

C#CC[N+](C)(C)C[B-](F)(F)F [compound 7, N-propargyl-N,N-dimethyl-ammoniomethyl-trifluoroborate]
Loss of free fluoride (hydrolytic stability) [1]: very slow, first order rate

DOTA-AMBF3-PEG2-LLP2A [compound 6]
Kd relative to Kd values of other [^18F]RBF3-PEG2-LLP2A conjugates (fold higher) ([2]; comparison with earlier conjugates): at least 5 fold | Kd ([2]; saturation binding of [^18F]6, B16-F10 cells, 1 h at 25° C., n=3): 6.9 ± 0.59 nM

DOTA-[^18F]AMBF3-PEG2-LLP2A [[^18F]6]
Time of initial perfusion and first pass through the liver (dynamic PET) [3]: ≤ 4 min p.i. | Time to uptake in the tumor (dynamic PET) [3]: ≤ 1.9 min p.i. | Lowering of tumor-to-blood contrast by VLA-4 blocking ([4]; 1 h p.i., p<0.0001): 85% | Lowering of tumor-to-muscle contrast by VLA-4 blocking ([4]; 1 h p.i., p<0.0001): 92% | Reduction of accumulation in bone & marrow by co-injection of 1 ([4]; 1 h p.i., p<0.0001): 78% | Reduction of accumulation in the lungs by co-injection of 1 ([4]; 1 h p.i., p<0.0001): 85% | Reduction of accumulation in the spleen by co-injection of 1 ([4]; 1 h p.i., p<0.0001): 88% | Reduction of accumulation in the tumor by co-injection of 1 ([4]; 1 h p.i., p<0.0001): 75% | Reduction of accumulation in the intestines by co-injection of 1 ([4]; 1 h p.i., p<0.05): 43% | Reduction of accumulation in the intestines compared to previously investigated [^18F]RBF3-PEG2-LLP2A's ([4]; mouse, in vivo): ~10 fold | Tumor-to-tissue ratio Tumor: Bone & Marrow ([4]; mouse, in vivo): 1.98 ± 0.78 | Tumor-to-tissue ratio Tumor: Kidney ([4]; mouse, in vivo): 2.22 ± 0.60

^18F-PSMA-617-LysAMBF3-DOTA [F-18 labeled PSMA-617-Lys-AMBF3-DOTA]
Tumor/Blood baseline [5]: 14.19 ± 3.85 | Tumor/Kidney baseline [5]: 0.09 ± 0.03 | Tumor/Muscle baseline [5]: 41.55 ± 10.83

Source: patent US12427209B2, “Dual mode 18F-labelled theranostic compounds and uses thereof” (Provincial Health Services Authority, priority 2018, dated 2025)
